Key:
[1] = test system: redroot pigweed (Amaranthus retroflexus); assay: Postemergence herbicidal activity; type: in vivo; conditions: Amaranthus retroflexus, post-emergence, 336 h, post-emergent, 140 g ai/ha, after 14 days; read-out: % Control AMARE
Method in brief: (§1)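 Plants grown 7-21 days in greenhouse (about 15 h photoperiod, 23-29° C day, 22-28° C night) to first or second true leaf stage. Compounds in acetone/water/isopropanol/DMSO carrier with crop oil concentrate and Triton X-155 sprayed overhead at 187 L/ha; controls received solvent blank. Plants sub-irrigated afterwards; dose responses analysed by probit analysis.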

[2] = test system: velvetleaf (Abutilon theophrasti); assay: Postemergence herbicidal activity; type: in vivo; conditions: Abutilon theophrasti, post-emergence, 336 h, post-emergent, 140 g ai/ha, after 14 days; read-out: % Control ABUTH
Method in brief: as §1

[3] = test system: lambsquarter (Chenopodium album); assay: Postemergence herbicidal activity; type: in vivo; conditions: Chenopodium album, post-emergence, 336 h, post-emergent, 140 g ai/ha, after 14 days; read-out: % Control CHEAL
Method in brief: as §1

[4] = test system: rice (Orysa sativa var. Japonica); assay: Herbicidal activity in transplanted paddy rice; type: in vivo; conditions: transplant rice (crop), paddy water application, after 3 weeks; for pest or weed control at 35 g/ha: 35 g ai/ha
Description: (§2) Weed seeds or nutlets of the desired test plant species were planted in puddled soil (mud) prepared by mixing a non-sterilized mineral soil (28 percent silt, 18 percent clay, and 54 percent sand, with a pH of about 7.3 to 7.8 and an organic matter content of about 1.0 percent) and water at a ratio of 100 kg of soil to 19 L of water. The prepared mud was dispensed in 250 mL aliquots into 480 mL non-perforated plastic pots with a surface area of 91.6 square centimeters leaving a headspace of 3 centimeters in each pot. […] Seedlings at the second or third leaf stage of growth were transplanted into 650 mL of mud contained in 960 mL non-perforated plastic pots with a surface area of 91.6 square centimeters 4 days prior to herbicide application. The paddy was created by filling the 3 centimeter headspace of the pots with water. When required to ensure good germination and healthy plants, a fungicide treatment and/or other chemical or physical treatment was applied. The plants were grown for 4-14 days in a greenhouse with an approximate 14 hour photoperiod which was maintained at about 29° C. during the day and 26° C. during the night. Nutrients were added as Osmocote (17:6:10, N:P:K+minor nutrients) at 2 g per pot. Water was added on a regular basis to maintain the paddy flood, and supplemental lighting was provided with overhead metal halide 1000-Watt lamps as necessary. The plants were employed for testing when they reached the second or third true leaf stage. A weighed amount, determined by the highest rate to be tested, of each test compound was placed in a 120 mL glass vial and was dissolved in 20 mL of acetone to obtain concentrated stock solutions. […] Application rates of ½×, ¼×, ⅛× and 1/16× of the high rate were obtained by injecting an appropriate amount of the stock solution into the aqueous layer of the paddy. Control plants were treated in the same manner with the solvent blank. The treated plants and control plants were placed in a greenhouse as described above and water was added as needed to maintain a paddy flood.

Scirpus juncoides = assay: Herbicidal activity in transplanted paddy rice; type: in vivo; conditions: paddy water application, after 3 weeks; for pest or weed control at 35 g/ha: 35 g ai/ha
Description: as §2

Monochoria vaginalis = assay: Herbicidal activity in transplanted paddy rice; type: in vivo; conditions: paddy water application, after 3 weeks; for pest or weed control at 35 g/ha: 35 g ai/ha
Description: as §2

Echinochloa crus-galli = assay: Herbicidal activity in transplanted paddy rice; type: in vivo; conditions: paddy water application, after 3 weeks; for pest or weed control at 35 g/ha: 35 g ai/ha
Description: as §2

Cyperus difformis = assay: Herbicidal activity in transplanted paddy rice; type: in vivo; conditions: paddy water application, after 3 weeks; for pest or weed control at 35 g/ha: 35 g ai/ha
Description: as §2

Veronica persica = assay: Postemergence herbicidal activity in cereal crops; type: in vivo; conditions: post-emergent, 17.5 g ai/ha, after 20-22 days; for pest or weed control at 17.5 g/ha: Veronica persica, post-emergence, 480 h, read-out: % Control VERPE
Description: (§3) When required to ensure good germination and healthy plants, a fungicide treatment and/or other chemical or physical treatment was applied. The plants were grown for 7-36 days in a greenhouse with an approximate 14 hour photoperiod which was maintained at about 18° C. during the day and 17° C. during the night. Nutrients and water were added on a regular basis and supplemental lighting was provided with overhead metal halide 1000-Watt lamps as necessary. The plants were employed for testing when they reached the second or third true leaf stage. […] The concentrated stock solutions obtained were diluted with 16 mL of an aqueous mixture containing acetone, water, isopropyl alcohol, DMSO, Agri-dex crop oil concentrate, and Triton® X-77 surfactant in a 64.7:26.0:6.7:2.0:0.7:0.01 v/v ratio to obtain spray solutions containing the highest application rates. […] Compound requirements are based upon a 12 mL application volume at a rate of 187 L/ha. Formulated compounds were applied to the plant material with an overhead Mandel track sprayer equipped with a […] nozzles calibrated to deliver 187 L/ha over an application area of 0.503 square meters at a spray height of 18 inches (43 cm) above average plant canopy height. Control plants were sprayed in the same manner with the blank. The treated plants and control plants were placed in a greenhouse as described above and watered by sub-irrigation to prevent wash-off of the test compounds.

Lamium purpureum = assay: Postemergence herbicidal activity in cereal crops; type: in vivo; conditions: post-emergent, 17.5 g ai/ha, after 20-22 days; for pest or weed control at 17.5 g/ha: Lamium purpureum, post-emergence, 480 h, read-out: % Control LAMPU
Description: as §3

Galium aparine = assay: Postemergence herbicidal activity in cereal crops; type: in vivo; conditions: post-emergent, 17.5 g ai/ha, after 20-22 days; for pest or weed control at 17.5 g/ha: Galium aparine, post-emergence, 480 h, read-out: % Control GALAP
Description: as §3

[5] = test system: wheat (Triticum aestivum); assay: Postemergence herbicidal activity in cereal crops; type: in vivo; conditions: crop, post-emergent, 17.5 g ai/ha, after 20-22 days; for plant injury at 17.5 g/ha: Triticum aestivum, post-emergence, 480 h, read-out: % Control TRZAS
Description: as §3

barley (Hordeum vulare) = assay: Postemergence herbicidal activity in cereal crops; type: in vivo; conditions: crop, post-emergent, 17.5 g ai/ha, after 20-22 days; for pest or weed control at 17.5 g/ha: Hordeum, post-emergence, 480 h, read-out: % Control HORVS
Description: as §3

Papaver rhoeas = assay: Postemergence herbicidal activity in cereal crops; type: in vivo; conditions: post-emergent, 17.5 g ai/ha, after 20-22 days; for pest or weed control at 17.5 g/ha: Papaver rhoeas, post-emergence, 480 h, read-out: % Control PAPRH
Description: as §3

[6] = Schoenoplectiella juncoides, 504 h, read-out: % Control SCPJU
[7] = Pontederia vaginalis, 504 h, read-out: % Control MOOVA
[8] = Echinochloa crus-galli, 504 h, read-out: % Control ECHCG
[9] = Cyperus difformis, 504 h, read-out: % Control CYPDI

Row | melting point | SMILES | pest or weed control at 140 g/ha [1] | pest or weed control at 140 g/ha [2] | pest or weed control at 140 g/ha [3] | pest or weed control at 35 g/ha ([4]; Oryza sativa, 504 h) | pest or weed control at 35 g/ha (Scirpus juncoides; [6]) | pest or weed control at 35 g/ha (Monochoria vaginalis; [7]) | pest or weed control at 35 g/ha (Echinochloa crus-galli; [8]) | pest or weed control at 35 g/ha (Cyperus difformis; [9]) | pest or weed control at 17.5 g/ha (Veronica persica) | pest or weed control at 17.5 g/ha (Lamium purpureum) | pest or weed control at 17.5 g/ha (Galium aparine) | plant injury at 17.5 g/ha [5] | pest or weed control at 17.5 g/ha (barley (Hordeum vulare)) | pest or weed control at 17.5 g/ha (Papaver rhoeas) | further results
1 | 176 to 177 °C | COc1c(Br)ccc(-c2cc(N)c(Cl)c(C(=O)O)n2)c1F [Compound 120, 4-Amino-6-(4-bromo-2-fluoro-3-methoxyphenyl)-3-chloropyridine-2-carboxylic acid] | 90% | 100% | 95% | 0% | 95% | 100% | 40% | 100% | 50% | 95% | 80% | 0% | 0% | 95% | –
2 | – | CCN(CC)CC.COc1c(Cl)ccc(-c2cc(N)c(Cl)c(C(=O)O)n2)c1F [Compound 135, 4-amino-3-chloro-6-(4-chloro-2-fluoro-3-methoxyphenyl)-pyridine-2-carboxylic acid, triethyl amine salt] | – | – | – | – | – | – | – | – | – | – | – | – | – | – | % Control ORYSA ([4]; 17.5 g ai/ha): 10%; % Control SCPJU (Scirpus juncoides; 17.5 g ai/ha): 85%; % Control MOOVA (Monochoria vaginalis; 17.5 g ai/ha): 100%; % Control ECHCG (Echinochloa crus-galli; 17.5 g ai/ha): 30%; % Control CYPDI (Cyperus difformis; 17.5 g ai/ha): 100%; % Control VERPE (Veronica persica): 60%; % Control LAMPU (Lamium purpureum): 100%; % Control GALAP (Galium aparine): 90%; % Control TRZAS [5]: 0%; % Control HORVS (barley (Hordeum vulare)): 0%; % Control PAPRH (Papaver rhoeas): 100%
3 | – | COC(=O)c1nc(-c2ccc(Cl)c(C(C)F)c2F)cc(N)c1Cl (centres unmarked) [Compound 61, 4-Amino-3-chloro-6-[4-chloro-2-fluoro-3-(1-fluoroethyl)phenyl]pyridine-2-carboxylic acid, methyl ester] | 100% | 100% | 100% | 0% | 100% | 100% | 80% | 100% | 75% | 99% | 85% | 10% | 0% | 90% | –
4 | – | CCCCOC(=O)c1nc(-c2ccc(Cl)c(C(C)F)c2F)cc(N)c1Cl (centres unmarked) [Compound 91, 4-Amino-3-chloro-6-[4-chloro-2-fluoro-3-(1-fluoroethyl)phenyl)pyridine-2-carboxylic acid, butyl ester] | 100% | 95% | 100% | 0% | 99% | 100% | 99% | 100% | 45% | 100% | 90% | 20% | 10% | 60% | –
5 | 148 to 149 °C | CNc1c(Cl)ccc(-c2cc(N)c(Cl)c(C(=O)OC)n2)c1F [Compound 38, 4-Amino-3-chloro-6-[4-chloro-2-fluoro-3-(methylamino)phenyl]pyridine-2-carboxylic acid, methyl ester] | 100% | 100% | 100% | – | – | – | – | – | 99% | 95% | 85% | 5% | 0% | 100% | pest or weed control at 70 g/ha ([4]; Oryza sativa, 504 h, 70 g ai/ha): 0%; pest or weed control at 70 g/ha (Scirpus juncoides; Schoenoplectiella juncoides, 504 h, 70 g ai/ha, read-out: % Control SCPJU): 95%; pest or weed control at 70 g/ha (Monochoria vaginalis; Pontederia vaginalis, 504 h, 70 g ai/ha, read-out: % Control MOOVA): 100%; pest or weed control at 70 g/ha (Echinochloa crus-galli; Echinochloa crus-galli, 504 h, 70 g ai/ha, read-out: % Control ECHCG): 50%; pest or weed control at 70 g/ha (Cyperus difformis; Cyperus difformis, 504 h, 70 g ai/ha, read-out: % Control CYPDI): 100%
6 | – | CCCCOC(=O)c1nc(-c2ccc(Br)c(OC)c2F)cc(N)c1Cl [Compound 90, 4-Amino-3-chloro-6-(4-bromo-2-fluoro-3-methoxyphenyl)pyridine-2-carboxylic acid, butyl ester] | 85% | 100% | 100% | – | – | – | – | – | 25% | 100% | 99% | 0% | 10% | 95% | pest or weed control at 17.5 g/ha ([4]; Oryza sativa, 504 h, 17.5 g ai/ha): 0%; pest or weed control at 17.5 g/ha (Scirpus juncoides; Schoenoplectiella juncoides, 504 h, 17.5 g ai/ha, read-out: % Control SCPJU): 90%; pest or weed control at 17.5 g/ha (Monochoria vaginalis; Pontederia vaginalis, 504 h, 17.5 g ai/ha, read-out: % Control MOOVA): 100%; pest or weed control at 17.5 g/ha (Echinochloa crus-galli; Echinochloa crus-galli, 504 h, 17.5 g ai/ha, read-out: % Control ECHCG): 30%; pest or weed control at 17.5 g/ha (Cyperus difformis; Cyperus difformis, 504 h, 17.5 g ai/ha, read-out: % Control CYPDI): 100%
